In patent US7795315B2, “N-(2-amino-phenyl)-amide derivatives” (Hoffman-La Roche Inc., priority 2008, dated 2010):

Columns and labels:
Assay type in all cases: cell-based
[1] = tested on: p21 promoter-luciferase construct in HeLa cells; test: p21 reporter gene induction; conditions: 3 micromolar, 15 hours, relative to SNDX-275
Method: (§1) The novel compounds of the present invention were tested for their ability to induce p21 gene expression using a reporter gene assay involving HeLa cells transfected with a p21 promoter-luciferase construct. The p21 promoter contained the Sp1/Sp3 binding site for HDAC but not the upstream p53 binding site. Briefly, the day before transfection, HeLa cells were seeded at 11,000 cells/well in a 96-well culture plate and incubated at 37 degrees Celsius in 5% CO2 overnight. For transfection, the medium was removed and replaced with 100 microliters/well transfection media previously prepared as follows: 5 microliters serum-free DMEM, 0.15 microliters Fugene 6 reagent, 40 ng p21-luc, 10 ng GFP were mixed gently and incubated at room temperature for 30 minutes; then 98 microliters DMEM (with 10% FBS, 1% penicillin and streptomycin) was added to the DNA:Fugene 6 reagent complex and mixed gently. After incubating the cells for 24 hours at 37 degrees Celsius in 5% CO2, fresh media and test compounds were added to the wells and the cells further incubated for 15 hours at 37 degrees Celsius in 5% CO2. Cells were lysed by adding 80 microliters/well of a cell culture lysis reagent (Promega). 50 microliters of each lysate was taken for GFP detection using an excitation wavelength of 486 nm and detection at 527 nm. 100 microliters Luciferase assay reagent (Promega) was then added to every 20 microliters cell lysate for luminometer detection. […] Induction activity for specific representative compounds can be found in Table 4.

[2] = tested on: HCT-116 colon cancer cells; test: Antiproliferative activity, growth inhibition (MTS/WST assay); conditions: Homo sapiens, 72 hour growth inhibition, read-out: GI50 HCT116
Method: The novel compounds of the present invention were tested for their ability to inhibit growth of various cancer cell lines (HeLa, MCF7, U2OS, HepG2, HL60, HCT-116) using in vitro growth inhibition assays described below.
Cells were seeded in 96-well culture plates (200 microliters/well at different seeding concentrations depending on cell type) and incubated overnight at 37 degrees Celsius in 5% CO2. After adding compound dilutions to the cells (DMSO concentration kept below 0.5%), the cells were incubated at 37 degrees Celsius in 5% CO2 for 72 hours. The effects on proliferation were determined by addition of MTS reagent (Promega) according to the manufacturer's instruction, followed by incubation for 2 hours at 37 degrees Celsius in 5% CO2, and finally recording the absorbance at 490 nm using an ELISA plate reader.
Similar to MTS assay except that the developer is the CCK-8 reagent (Dojindo) and the plate reader is set to 450 nm absorbance.
GI50 values against HCT-116 colon cancer cells for specific representative compounds can be found in Table 4.

[3] = tested on: klf2 promoter-luciferase construct in A204 cells; test: klf2 reporter gene induction (p21 versus klf2 selectivity); conditions: SNDX-275 p21/klf2 ratio defined as 1.0; for p21/klf2 (RP3): relative selectivity compared with SNDX-275: 3 micromolar; for p21/klf2 (RP10): relative selectivity compared with SNDX-275: 10 micromolar
Method: as §1
The novel compounds of the present invention were tested for their ability to induce klf2 gene expression using a reporter gene assay involving A204 cells transfected with a klf2 promoter-luciferase construct. The klf2 promoter contained the MEF2 binding site for HDAC3/class IIa HDAC complex. Briefly, the day before transfection, A204 cells were seeded at 11,000 cells/well in a 96-well culture plate and incubated at 37 degrees Celsius in 5% CO2 overnight. For transfection, the medium was removed and replaced with 100 microliters/well transfection media previously prepared as follows: 5 microliters serum-free DMEM, 0.15 microliters Fugene 6 reagent, 40 ng klf2-luc, 10 ng GFP were mixed gently and incubated at room temperature for 30 minutes; then 98 microliters DMEM (with 10% FBS, 1% penicillin and streptomycin) was added to the DNA:Fugene 6 reagent complex and mixed gently. After incubating the cells for 24 hours at 37 degrees Celsius in 5% CO2, fresh media and test compounds were added to the wells and the cells further incubated for 15 hours at 37 degrees Celsius in 5% CO2. Finally, 10 ng/ml TNF-α was added and the cells further incubated for 4 hours. Cells were lysed by adding 80 microliters/well of a cell culture lysis reagent (Promega). 50 microliters of each lysate was taken for GFP detection using an excitation wavelength of 486 nm and detection at 527 nm. 100 microliters Luciferase assay reagent (Promega) was then added to every 20 microliters cell lysate for luminometer detection.

Structure (SMILES)	GI50 [2]	p21 (RP3): relative induction potency compared with SNDX-275 [1]	p21/klf2 (RP3): relative selectivity compared with SNDX-275 [3]	p21/klf2 (RP10): relative selectivity compared with SNDX-275 [3]
Nc1ccccc1NC(=O)/C=C/c1ccc(C(NCCN2CCOCC2)C(=O)Nc2ccc(C(F)(F)F)cc2F)cc1 (stereo not drawn) [Example 4-22, (E)-N-(2-Amino-phenyl)-3-{4-[(2-fluoro-4-trifluoromethyl-phenylcarbamoyl)-(2-morpholin-4-yl-ethylamino)-methyl]-phenyl}-acrylamide]	1200 nM	103%	1.8	2.0
CN(C)CCNC(C(=O)Nc1ccc(C(F)(F)F)cc1F)c1ccc(/C=C/C(=O)Nc2ccccc2N)cc1 (stereo not drawn) [Example 4-24, (E)-N-(2-Amino-phenyl)-3-{4-[(2-dimethylamino-ethylamino)-(2-fluoro-4-trifluoromethyl-phenylcarbamoyl)-methyl]-phenyl}-acrylamide]	2100 nM	162%	1.5	1.5
Nc1ccccc1NC(=O)/C=C/c1ccc(C(NCCN2CCOCC2)C(=O)Nc2ccc(C(F)(F)F)c(Cl)c2)cc1 (stereo not drawn) [Example 4-29, (E)-N-(2-Amino-phenyl)-3-{4-[(3-chloro-4-trifluoromethyl-phenylcarbamoyl)-(2-morpholin-4-yl-ethylamino)-methyl]-phenyl}-acrylamide]	2100 nM	48%	0.6	2.3
Nc1ccccc1NC(=O)/C=C/c1ccc(C(NCCCN2CCOCC2)C(=O)Nc2ccc(C3CC3)cc2)cc1 (stereo not drawn) [Example 4-41, (E)-N-(2-Amino-phenyl)-3-{4-[(4-cyclopropyl-phenylcarbamoyl)-(3-morpholin-4-yl-propylamino)-methyl]-phenyl}-acrylamide]	1400 nM	156%	3.5	2.1
Nc1ccccc1NC(=O)/C=C/c1ccc(C(NCCN2CCOCC2)C(=O)Nc2ccc(C(F)(F)F)cn2)cc1 (stereo not drawn) [Example 4-43, (E)-N-(2-Amino-phenyl)-3-{4-[(2-morpholin-4-yl-ethylamino)-(5-trifluoromethyl-pyridin-2-ylcarbamoyl)-methyl]-phenyl}-acrylamide]	2200 nM	89%	0.9	2.1
Nc1ccccc1NC(=O)/C=C/c1ccc(C(NCCN2CCCCC2)C(=O)Nc2ccc(OC(F)(F)F)cc2)cc1 (stereo not drawn) [Example 4-48, (E)-N-(2-Amino-phenyl)-3-{4-[(2-piperidin-1-yl-ethylamino)-(4-trifluoromethoxy-phenylcarbamoyl)-methyl]-phenyl}-acrylamide]	1400 nM	130%	1.9	1.9

The next lines start with results.

GI50 [2]	Structure (SMILES)	p21 (RP3): relative induction potency compared with SNDX-275 [1]	p21/klf2 (RP3): relative selectivity compared with SNDX-275 [3]	p21/klf2 (RP10): relative selectivity compared with SNDX-275 [3]
200 nM	Nc1ccccc1NC(=O)/C=C/c1ccc(C(NCCN2CCCCC2)C(=O)Nc2ccc(Br)cc2)cc1 (stereo not drawn) [Example 4-31, (E)-N-(2-Amino-phenyl)-3-{4-[(4-bromo-phenylcarbamoyl)-(2-piperidin-1-yl-ethylamino)-methyl]-phenyl}-acrylamide]	178%	1.2	1.2
1300 nM	Nc1ccccc1NC(=O)/C=C/c1ccc(C(NCCN2CCCCC2)C(=O)Nc2ccc(C(F)(F)F)cc2F)cc1 (stereo not drawn) [Example 4-35, (E)-N-(2-Amino-phenyl)-3-{4-[(2-fluoro-4-trifluoromethyl-phenylcarbamoyl)-(2-piperidin-1-yl-ethylamino)-methyl]-phenyl}-acrylamide]	140%	2.0	3.0
2000 nM	Nc1ccccc1NC(=O)/C=C/c1ccc(C(NCCN2CCOCC2)C(=O)Nc2ccc(C(F)(F)F)c(F)c2)cc1 (stereo not drawn) [Example 4-36, (E)-N-(2-Amino-phenyl)-3-{4-[(3-fluoro-4-trifluoromethyl-phenylcarbamoyl)-(2-morpholin-4-yl-ethylamino)-methyl]-phenyl}-acrylamide]	43%	0.7	3.1
1000 nM	CC(C)c1ccc(NC(=O)C(NCCN2CCOCC2)c2ccc(/C=C/C(=O)Nc3ccccc3N)cc2)cc1 (stereo not drawn) [Example 4-37, (E)-N-(2-Amino-phenyl)-3-{4-[(4-isopropyl-phenylcarbamoyl)-(2-morpholin-4-yl-ethylamino)-methyl]-phenyl}-acrylamide]	60%	1.1	1.7
900 nM	Nc1ccccc1NC(=O)/C=C/c1ccc(C(NCCN2CCOCC2)C(=O)Nc2ccc(C3CC3)cc2)cc1 (stereo not drawn) [Example 4-47, (E)-N-(2-Amino-phenyl)-3-{4-[(4-cyclopropyl-phenylcarbamoyl)-(2-morpholin-4-yl-ethylamino)-methyl]-phenyl}-acrylamide]	79%	1.0	1.8
1400 nM	CN(C)CCNC(C(=O)Nc1ccc(C(F)(F)F)c(F)c1)c1ccc(/C=C/C(=O)Nc2ccccc2N)cc1 (stereo not drawn) [Example 4-49, (E)-N-(2-Amino-phenyl)-3-{4-[(2-dimethylamino-ethylamino)-(3-fluoro-4-trifluoromethyl-phenylcarbamoyl)-methyl]-phenyl}-acrylamide]	128%	1.5	1.5
3700 nM	CC(C)(C)c1ccc(NC(=O)C(NCCO)c2ccc(/C=C/C(=O)Nc3ccccc3N)cc2)cc1 (stereo not drawn) [Example 4-68, (E)-N-(2-Amino-phenyl)-3-{4-[(4-tert-butyl-phenylcarbamoyl)-(2-hydroxy-ethylamino)-methyl]-phenyl}-acrylamide]	41%	0.5	1.3
1700 nM	Nc1ccccc1NC(=O)/C=C/c1ccc(C(NCCO)C(=O)Nc2ccc(C(F)(F)F)cc2)cc1 (stereo not drawn) [Example 4-69, (E)-N-(2-Amino-phenyl)-3-{4-[(2-hydroxy-ethylamino)-(4-trifluoromethyl-phenylcarbamoyl)-methyl]-phenyl}-acrylamide]	117%	1.0	2.3
1000 nM	Nc1ccccc1NC(=O)/C=C/c1ccc(C(NCCN2CCOCC2)C(=O)Nc2ccc(Br)cc2)cc1 (stereo not drawn) [Example 9-1, (E)-N-(2-Amino-phenyl)-3-{4-[(4-bromo-phenylcarbamoyl)-(2-morpholin-4-yl-ethylamino)-methyl]-phenyl}-acrylamide]	144%	1.0	2.2
